Results reported in article PMC3725993 (Bioorganic & medicinal chemistry letters, 2013).

Columns and labels:
[1] = Water solubility; type: physicochemical; details: statement in words
[2] = rat behavioral model; cited from earlier work
[3] = rats; cited from earlier work

COc1ccc(CC[C@@H]2CC[C@H](CCc3ccc(OC)cc3)N2C[C@@H](O)CO)cc1.Cl [Compound 11d]
water solubility [1]: water-soluble

CN1[C@@H](CC(=O)c2ccccc2)CCC[C@H]1C[C@H](O)c1ccccc1 [(−)-Lobeline]
rewarding effects of methamphetamine [2]: decrease

COc1ccc(CC[C@H]2CCC[C@@H](CCc3ccc(OC)cc3)N2C[C@@H](O)CO)cc1 [Compound 3]
METH self-administration (SA) and reward [3]: blocked | responding for food [3]: no effect

Cl.OC[C@H](O)CN1[C@H](CCc2ccc(OC(F)F)cc2)CC[C@@H]1CCc1ccc(OC(F)F)cc1 [Compound 11f]
water solubility [1]: water-soluble
